The values below come from patent US7541193B2, “Caged sensors, regulators and compounds and uses thereof” (Panomics, Inc., priority 2002, dated 2009).

Assay [1] concerns PKC. Briefly: photoactivated in vitro PKC assay initiated by uncaging caged ATP. Type of assay: biochemical. To be noted: exposed to 365 nm UV lamp for 10 min; excitation 485 nm, emission 535 nm. As to the method: FIG. 34 is a line graph depicting the results of a photoactivated PKC assay using caged ATP and a PKC sensor. […] Reactions were read on a fluorescent microtiter plate reader with excitation at 485 nm and emission at 535 nm.
FIG. 33 (see, also, FIG. 23) illustrates the activation of an in vitro PKC assay after exposure to 365 nm light. All components were mixed together in a 96-well microtiter plate. The plate was exposed to a 365 nm UV lamp for 10 min (step 3301) and immediately placed into a fluorescent microtiter plate reader for detection. The light-activated compound is DMNPE-caged ATP. […] See, e.g., McCray and Trentham (1989) “Properties and Uses of Photoreactive Caged Compounds” Annu Rev Biophys Biophys Chem 18:239 for a description of the caged ATP. The PKC probes and reaction set-up are based on Yeh et al. (2002) “Real time visualization of protein kinase activity in living cells” J Biol Chem 277: 11527-11532, with the replacement of normal ATP by DMNPE-caged ATP.

The target of assay [2] is PKC enzyme. As to the kind of experiment: in vitro biochemical PKC assay with PKC sensor (not caged). To be noted: 1 mM ATP, 1 μM PKC sensor (not caged), 22 nM PKC enzyme; read-out: IC-50 determined in an in vitro biochemical assay.
Assay [3] deals with protein kinase C (PKC). As to the kind of experiment: in vivo IC-50 determination with photolabile caged PKC sensor in living HeLa cells. Type of assay: cell-based. The note with it: HeLa cells transfected with 10 μM caged PKC sensor; 30 min inhibitor incubation; uncaging 1 J/cm^2 365 nm; 1 μM PMA; read-out: IC-50 determined in vivo. As to the method:
The caged PKC sensor was transfected into the cells at a concentration of 10 μM, as follows. To 37.5 μl serum-free DMEM, 2.5 μl Profect P-2 and then 10 μl of caged PKC sensor (diluted to 500 μM in PBS) were added. The reagents were mixed gently and incubated for 30 minutes at room temperature. The DMEM was removed from the well containing the HeLa cells, and the cells were washed once with PBS. After addition of 450 μl serum-free DMEM to the Profect P-2-caged sensor complex, 50 μl of the complex was added to each well. The HeLa cells were incubated with the complex at 37° C. for 2 h (or optionally longer, with the addition of fresh DMEM). To uncage the caged PKC sensor, cells were exposed from beneath the plate to 1 J/cm^2 365 nm UV light. Uncaging light was produced by a BlueWave ™ UV Spot Light System fitted with a Lightguide mount assembly, Cool Blue™ filter, and Lightguide rod lens assembly (Dymax Corp., on the internet at dymax.com, part numbers 38600, 38670, and 38699). […] Fluorescent signal from the PKC sensor was read on an Acumen Explorer™ microplate reader.
Cells containing the caged sensor were incubated with 4-fold dilutions of GF109203X for 30 min before the cells were exposed to uncaging light (1 J/cm^2, 365 nm) and treated with 1 μM PMA. Fluorescent signal from the PKC sensor was read on an Acumen Explorer™ microplate reader. […]

Each structure is given as a SMILES string.

With `COc1cc(C(C)OP(=O)(O)OP(=O)(O)OP(=O)(O)OCC2OC(n3cnc4c(N)ncnc43)C(O)C2O)c([N+](=O)[O-])cc1OC` (stereo not drawn) [DMNPE-caged ATP], in assay [1], the “signal response (relative fluorescence) of PKC reaction” value is “exhibits signal response similar to the reaction with normal ATP”. Take `CN(C)CCCn1cc(C2=C(c3c[nH]c4ccccc34)C(=O)NC2=O)c2ccccc21` [GF109203X]: the values for the IC50 in assay [2] and in assay [3] were 1100 nM and 1600 nM, respectively.
